{"source": "BindingDB's records for PubMed 22948716", "about": "(Children's Hospital of Philadelphia)", "key": {"[1]": {"assay": "Inhibition of CENP-E in human SK-N-FI cells assessed as decrease in cell viability after 72 hrs by Cell-titer Glo reagent assay"}, "[2]": {"assay": "Inhibition of CENP-E in human RKO cells expressing BRAF mutant assessed as decrease in cell viability after 72 hrs by Cell-titer Glo reagent assay"}, "[3]": {"assay": "Inhibition of CENP-E in human SW620 cells expressing KRAS mutant assessed as decrease in cell viability after 72 hrs by Cell-titer Glo reagent assay"}, "[4]": {"assay": "Inhibition of CENP-E in human HCT-116 cells expressing KRAS mutant assessed as decrease in cell viability after 72 hrs by Cell-titer Glo reagent assay"}, "[5]": {"assay": "Inhibition of CENP-E in human SK-N-FI cells assessed as decrease in cell viability after 72 hrs in presence of ERK1 siRNA by Cell-titer Glo reagent assay"}}, "data": [{"smiles": "CC(C)Oc1ccc(C(=O)N[C@H](CNC(=O)CN(C)C)Cc2ccc(-c3cn4cccc([C@H](C)O)c4n3)cc2)cc1Cl", "note": "[Gsk-923295a]", "values": [{"measurement": "IC50", "setting": "[1]", "value": 283, "unit": "nM"}, {"measurement": "IC50", "setting": "[2]", "value": 56, "unit": "nM"}, {"measurement": "IC50", "setting": "[3]", "value": 42, "unit": "nM"}, {"measurement": "IC50", "setting": "[4]", "value": 52, "unit": "nM"}, {"measurement": "IC50", "setting": "[5]", "value": 134, "unit": "nM"}]}]}
